Test results from patent publication US9790252B2, “2-fluorinated riboses and arabinoses and methods of use and synthesis” (CORNELL UNIVERSITY, priority 2009, dated 2017).

Tests used:
HEK293 cells = assay: Toxicity to HEK293 cells (MTT); format: cell-based; conditions: for 100 μM absorbance / 100 μM relative viability: HEK293, 100 μM; for 100 μM absorbance / 100 μM relative viability / 500 μM absorbance / 500 μM relative viability: 12 hours; for 100 μM absorbance / 500 μM absorbance: 570 nm; for 100 μM relative viability / 500 μM relative viability: control = 1; for 500 μM absorbance / 500 μM relative viability: HEK293, 500 μM
Method: 1. HEK293 cells were seeded in 96-well plate at a density of 25,000 cells/well the day before the experiment starts;
2. After the cells reach 50˜60% confluency, media was taken out, and 100 μL of fresh media was added to each well;
3. F-derivatives were plated at 100 and 500 μM (in duplicates) concentrations;
4. After 12 hours' incubation at 37° C., the media was taken out, 100 μL of fresh media was added to each well along with 20 μL of 5 mg/mL of MTT solution (in PBS);
5. After 1.5 hours' incubation at 37° C., media was taken out and 100 μL of DMSO was added to each well, the plate was mixed on shaker for 5 mins;
Absorbance was measured at 570 nm.
Assay for Determining Toxicity to HEK293 and Neuro2A Cells • 1. HEK293 and Neuro2A cells were seeded in 96-well plate at a density of 25,000 cells/well the day before the experiment starts; • 2. After the cells reach 50˜60% confluency, media was taken out, and 100 μL of fresh media was added to each well; • 3. Cl-derivatives were plated at 100 and 500 μM (in duplicates) concentrations; • 4. After 12 hours' incubation at 37° C., the media was taken out, 100 μL of fresh media was added to each well along with 20 μL of 5 mg/mL of MTT solution (in PBS); • 5. After 2 hours' incubation at 37° C., media was taken out and 100 μL of DMSO was added to each well, the plate was mixed on shaker for 5 mins; • 6. Absorbance was measured at 570 nm.

SirT1 = biological target: T1, SirT1 (Homo sapiens, UniProt Q96EB6); assay: SirT1 activity assay (HPLC of 2′- and 3′-AADPR); format: biochemical; conditions: 200 μM NAD+, 100 μM JB12 peptide; for SirT1 Ki / Ki: pH 7.5, 30 mins at 37° C.; for SirT1 inhibition (in words): pH 7.5
T1 sequence (Q96EB6 1-747): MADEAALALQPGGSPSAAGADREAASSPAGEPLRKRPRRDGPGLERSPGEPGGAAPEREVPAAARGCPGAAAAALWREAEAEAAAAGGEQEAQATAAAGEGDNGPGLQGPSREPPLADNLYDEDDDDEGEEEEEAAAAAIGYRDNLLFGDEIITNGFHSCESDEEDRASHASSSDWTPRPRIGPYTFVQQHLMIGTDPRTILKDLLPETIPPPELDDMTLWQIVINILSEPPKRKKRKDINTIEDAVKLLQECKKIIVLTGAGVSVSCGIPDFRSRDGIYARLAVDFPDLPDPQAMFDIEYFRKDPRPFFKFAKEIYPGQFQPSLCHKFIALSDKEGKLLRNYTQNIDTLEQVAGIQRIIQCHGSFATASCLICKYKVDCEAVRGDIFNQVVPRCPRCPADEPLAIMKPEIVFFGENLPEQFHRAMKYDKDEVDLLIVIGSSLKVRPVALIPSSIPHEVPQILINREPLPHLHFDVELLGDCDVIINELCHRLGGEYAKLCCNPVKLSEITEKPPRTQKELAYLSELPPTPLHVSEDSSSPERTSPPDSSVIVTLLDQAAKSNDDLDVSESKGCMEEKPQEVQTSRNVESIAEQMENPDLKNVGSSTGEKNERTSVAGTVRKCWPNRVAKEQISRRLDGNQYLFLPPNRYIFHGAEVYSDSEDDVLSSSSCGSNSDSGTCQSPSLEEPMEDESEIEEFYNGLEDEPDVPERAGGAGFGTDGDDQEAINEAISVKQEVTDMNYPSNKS
Method: Reactions containing 200 μM NAD^+, 100 μM JB12 peptide, and 100 mM phosphate buffer at pH 7.5, with varying concentrations of 2′-deoxy-2′-fluoro-nucleosides or nucleotides were initiated by addition of SirT1 enzyme to a concentration of 12.9 μM. Reactions were incubated for 30 mins at 37° C. and quenched by addition of trifluoroacetic acid to pH 2. After centrifugation to remove precipitates, reactions were injected on HPLC for activity analysis. Production of 2′- and 3′-AADPR were analyzed at 260 nm.
SirT1 Activity Assay: Reactions containing 200 μM NAD^+, 100 μM JB12 peptide, and 100 mM phosphate buffer at pH 7.5, with varying concentrations of 2′-deoxy-2′-chloro-nucleosides were initiated by addition of SirT1 enzyme to a concentration of 12.9 μM. Reactions were incubated for 30 mins at 37° C. and quenched by addition of trifluoroacetic acid to pH 2. After centrifugation to remove precipitates, reactions were injected on HPLC for activity analysis. Production of 2′- and 3′-AADPR were analyzed at 260 nm.

SirT2 = biological target: T2, SirT2 (Homo sapiens, UniProt Q8IXJ6); assay: SirT2 activity assay (HPLC of 2′- and 3′-AADPR); format: biochemical; conditions: 800 μM NAD+, 500 μM H3 peptide, pH 7.5, 45 mins at 37° C.
T2 sequence (Q8IXJ6 1-389): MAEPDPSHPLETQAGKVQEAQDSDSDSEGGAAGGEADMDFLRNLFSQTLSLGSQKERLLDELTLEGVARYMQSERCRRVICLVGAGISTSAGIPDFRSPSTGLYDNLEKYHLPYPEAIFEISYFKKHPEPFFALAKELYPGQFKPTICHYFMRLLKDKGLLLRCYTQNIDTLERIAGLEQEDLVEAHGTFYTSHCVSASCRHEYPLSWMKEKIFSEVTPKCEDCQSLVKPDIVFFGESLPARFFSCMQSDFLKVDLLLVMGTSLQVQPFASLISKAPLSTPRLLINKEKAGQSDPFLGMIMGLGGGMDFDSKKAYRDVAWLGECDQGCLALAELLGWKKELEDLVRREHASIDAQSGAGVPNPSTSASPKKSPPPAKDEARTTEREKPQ
Method: Reactions containing 800 μM NAD^+, 500 μM H3 peptide, and 100 mM phosphate buffer at pH 7.5, with varying concentrations of 2′-deoxy-2′-fluoro-nucleosides or nucleotides were initiated by addition of SirT2 enzyme to a concentration of 16.6 μM. Reactions were incubated for 45 mins at 37° C. and quenched by addition of trifluoroacetic acid to pH 2. After centrifugation to remove precipitates, reactions were injected on HPLC for activity analysis. Production of 2′- and 3′-AADPR were analyzed at 260 nm.
SirT2 Activity Assay: Reactions containing 800 μM NAD^+, 500 μM H3 peptide, and 100 mM phosphate buffer at pH 7.5, with varying concentrations of 2′-deoxy-2′-chloro-nucleosides were initiated by addition of SirT2 enzyme to a concentration of 16.6 μM. Reactions were incubated for 45 mins at 37° C. and quenched by addition of trifluoroacetic acid to pH 2. After centrifugation to remove precipitates, reactions were injected on HPLC for activity analysis. Production of 2′- and 3′-AADPR were analyzed at 260 nm.

[1] = Homo sapiens, HEK293, HEK293, 2′-deoxy-2′-fluoro-nucleosides and nucleotides
[2] = MTT 2 hours, chloro-nucleosides

Row | Compound | 100 μM absorbance (HEK293 cells; MTT 1.5 hours) | 100 μM relative viability (HEK293 cells) | 500 μM absorbance (HEK293 cells; MTT 1.5 hours) | 500 μM relative viability (HEK293 cells) | EC50 (HEK293 cells; [1]) [µM] | SirT1 Ki (SirT1) | Ki (SirT2) [µM] | Ki (SirT1) [µM] | SirT1 inhibition (in words) (SirT1) | SirT2 Ki (SirT2) | EC50 (HEK293 cells; HEK293, 2′-deoxy-2′-fluoro-nucleosides and nucleotides) [µM] | 100 μM absorbance (HEK293 cells; [2]) | 100 μM relative viability (HEK293 cells; chloro-nucleosides) | 500 μM absorbance (HEK293 cells; [2]) | 500 μM relative viability (HEK293 cells; chloro-nucleosides) | EC50 (HEK293 cells; Homo sapiens, HEK293, HEK293, 2′-deoxy-2′-chloro-nucleosides) [µM] | kills % of HEK293 cells (HEK293 cells; HEK293, at 500 μM)
1 | NC(=O)c1ccc[n+]([C@@H]2O[C@H](CO)C(O)C2F)c1 (stereo partly shown) [ara-F-NR, 1-(2′-deoxy-2′-fluoro-arabinofuranosyl)-nicotinamide] | 1.5325 | 0.6741 | 1.25 | 0.5499 | 550 | Ki = high mM | 2300 |  |  |  |  |  |  |  |  |  | 
2 | NC(=O)c1ccc[n+]([C@@H]2O[C@H](COP(=O)([O-])O)C(O)C2(F)F)c1 (stereo partly shown) [gem-diF-NMN, 2′-deoxy-2′,2′-difluoro-ribo-nicotinamide mononucleotide] | 1.559 | 0.6858 | 0 | 0 | 118 |  | 162 | 18 |  |  |  |  |  |  |  |  | 
3 | NC(=O)c1ccc[n+]([C@@H]2O[C@H](CO)[C@@H](O)C2(F)F)c1 [gem-diF-NR, 1-(2′-deoxy-2′,2′-difluoro-ribofuranosyl)-nicotinamide] | 1.679 | 0.7386 | 1.43 | 0.6289 | 846 |  |  |  | no inhibition | Ki = high mM |  |  |  |  |  |  | 
4 | NC(=O)c1ccc[n+]([C@@H]2O[C@H](COP(=O)([O-])O)C(O)C2F)c1 (stereo partly shown) [ribo-F-NMN, 2′-deoxy-2′-fluoro-ribo-nicotinamide mononucleotide] | 1.2275 | 0.54 | 0.9845 | 0.4331 |  |  | 450 |  | no inhibition |  | 241 |  |  |  |  |  | 
5 | NC(=O)c1ccc[n+]([C@@H]2O[C@H](CO)C(O)[C@@H]2F)c1 (stereo partly drawn) [ribo-F-NR, 1-(2-deoxy-2-fluoro-D-ribofuranosyl)-nicotinamide] | 0.019 | 0.008358 | 0.0015 | 0.00066 | 17 |  | 1730 | 200 |  |  |  |  |  |  |  |  | 
6 | NC(=O)c1ccc[n+]([C@@H]2O[C@H](CO)C(O)C2Cl)c1 (stereo partly drawn) [β-ara-Cl-NR, 1-(2′-deoxy-2′-chloro-arabinofuranosyl)-nicotinamide] |  |  |  |  |  | Ki = high mM | 3200 |  |  |  |  | 0 | 0 | 0 | 0 | 5 | 
7 | NC(=O)c1ccc[n+]([C@@H]2O[C@H](CO)C(O)C2(Cl)Cl)c1 (stereo partly drawn) [β-gem-diCl-NR, 1-(2′-deoxy-2′,2′-dichloro-ribofuranosyl)-nicotinamide] |  |  |  |  |  |  | 403 | 780 |  |  |  | 2.05 | 0.8436 | 1.63 | 0.6708 |  | kills 30% at 500 μM
